This note sets out measurements from patent publication US4452812A, “Organic complex of platinum, its preparation and its use for treating malignant tumors” (Sanofi, priority 1980, dated 1984).

One may read the ILS as how much longer treated animals lived than controls. A high value points to much gain in survival.

pIC50: −log10 of the molar value. Where only a bound is given, the exact number is not on record here.

One data set concerns leukemia L 1210. Nature of the data set: Anti-tumour activity, leukemia L 1210, i.p. graft, i.p. treatment. On the procedure:
[…] females (CNRS, Orleans) of 20 to 22 g
(a) i.p. graft--i.p. treatment
10^5 cells were grafted intraperitoneally on D0 and intraperitoneal treatment was carried out 24 hours later, D1, in one single injection.
PHD and PHM were suspended in a 4% Klucel (hydroxy propyl cellulose) solution (the word "Klucel" is a registered trademark of Hercules Incorporated, Delaware, U.S.A.).
The solutions of these compounds were prepared extemporaneously. The increase in life span, ILS (%), were calculated in comparison with the controls by the following formula: [formula] Deaths were recorded until day 30 for L 1210 tumour and until day 60 for S180 tumour.

The subject of the next data set is L 1210 cells. The data set is described as follows: Cytotoxicity on L 1210 cells in culture. It is filed as cell-based. The following applies: read-out: ID50 (reduces by 50% the rate of growth of the cells); usually 24 to 48 hours contact.
The nature of data set [1]: Stability in sodium chloride solution. It is filed as physicochemical. The following applies: 9% sodium chloride. How it is done: This compound has an exceptionally high degree of solubility.
(§1) The solutions of these compounds were prepared extemporaneously.

In another data set the test system is sarcoma S 180. Nature of the data set: Anti-tumour activity, sarcoma S 180 ascite, i.p. graft, i.p. treatment. It is filed as in vivo, mouse (Swiss female). The following applies: for ILS: single i.p. on D1. On the procedure: Swiss female mice (Evic-Ceba, Bordeaux) of 20 to 22 g
10^6 cells intraperitoneally grafted on D0
intraperitoneal treatment 24 hours later, D1, in one single injection.
as §1

A further data set has as its system abdominal viscera. Nature of the data set: Peritonitis (adhesion and hardening of abdominal viscera). The class given is in vivo, mouse. On the procedure:
as §1
As discussed above this problem seems to be linked to the presence of the 1,2-diaminocyclohexane ligand.

Data set [2] concerns renal and hepatic parenchyma. The data set is described as follows: Renal and hepatic toxicity. It is filed as in vivo, mouse (Swiss female). How it is done: It was thus of interest to compare the effects of the novel compound of the invention with those of the already known compounds listed above on the kidney and the liver, i.e. the organs in which the greatest amount of platinum accumulates.
Swiss female mice (Evic-Ceba, Bordeaux) of 20 to 22 g were treated by intraperitoneal route D0 and then sacrificed on D1, D4 and D10.
Slices 5 microns thick were coloured with hemalun eosine stain.

The subject of the next data set is mouse. Nature of the data set: Acute toxicity in the mouse. The class given is in vivo, mouse (Swiss female). Particulars: mouse, one single injection. On the procedure: Acute toxicity, one single injection of the compound, was measured using Swiss female mice (Evic-Ceba, Bordeaux) of 21 to 23 g. and Sprague-Dawley rats. Ten animals were treated for each dose studied.

The next data set relates to DNA. The data set is described as follows: Platinum fixed on DNA of L 1210 cells in vivo. Particulars: PDD 9 mg/kg, PHIC 150 mg/kg; two hours after treatment on D3. More on the design: species or system mouse (DBA/2). On the procedure: DBA/2 mice received 10^6 L 1210 cells on D0 and were treated three days later with an amount of platinum compound equal to the LD0 in the healthy mouse. Two hours after treatment on D3, the animals were sacrificed. […] Platinum was monitored by atomic absorption for whole cells and also on the DNA which was purified by phenol extraction. […] Under these conditions, one fixed platinum atom per 3000 nucleotides was found, i.e. a total of 1% of the amount which penetrated the cells was complexed to DNA. […] 10^-16 of platinum per cell.

Where [3] appears, read: S 180, 1 mg/kg i.p. on D1, day 60.
Setting [4] is: S 180, 2 mg/kg i.p. on D1, day 60.
Where [5] appears, read: S 180, 4 mg/kg i.p. on D1, day 60.
[6] abbreviates: S 180, 5 mg/kg i.p. on D1, day 60.
Setting [7] is: L 1210, 4 mg/kg i.p. on D1, day 30.
The mark [8] stands for this setting: S 180, 10 mg/kg i.p. on D1, day 60.
The mark [9] stands for this setting: S 180, 50 mg/kg i.p. on D1, day 60.

Turning to `NC1CCCCC1N.O.O=S(=O)([O-])[O-].[Pt+2]` (stereo not drawn) [PHS, cis-sulfatomonoaquo(1,2 diaminocyclohexane) platinum (II)], the increase in life span (ILS) in the data set on leukemia L 1210 (5 mg/kg, single i.p. on D1) is recorded as 112%; with sarcoma S 180 (0.5 mg/kg), 4%; in the data set on sarcoma S 180 (1 mg/kg), 10%; in the data set on sarcoma S 180 (2 mg/kg), 25%; in the data set with sarcoma S 180 (4 mg/kg), 47%; in the data set on sarcoma S 180 (5 mg/kg), 112%. For the same compound, the Survivals is reported as 40% in the data set with leukemia L 1210 (L 1210, 5 mg/kg i.p. on D1, day 30); 0% in the data set with sarcoma S 180 (S 180, 0.5 mg/kg i.p. on D1, day 60); 0% with sarcoma S 180 (setting [3]); 0% in the data set with sarcoma S 180 (setting [4]); 0% with sarcoma S 180 (setting [5]); 10% in the data set on sarcoma S 180 (setting [6]). Also, the pIC50 in the data set on L 1210 cells is 6.72. For the same compound, in data set [1], the “change to chlorinated derivative in sodium chloride solution” value is on record as “almost instantaneously to the formation of a yellow insoluble chlorinated compound”. Besides, in the data set with abdominal viscera (i.p.), the “occurrence of peritonitis in relation to the 1,2-diaminocyclohexane ligand” value (“occurrence of peritonitis in relation” for short) is listed as “seems to be correlated with the presence of 1,2-diaminocyclohexane”. The “renal and hepatic alterations” value in data set [2] (i.p. at ~LD0 (mg/kg): PDD 8, PAC 100, PHM 50, PHD 4, PHS 5, PHC 120, PHIC 150, D1, D4, D10) was “vascular dilation and proximal distorted tubules”.

Compound “cis-isocitratodiammineplatinum(II) [PAIC]” displayed an ILS in the data set with leukemia L 1210 (75 mg/kg, single injection on D1) of 74%. Also, the “LD0 (maximum nonlethal dose)” value with mouse came out at 75 mg/kg. Besides, the “occurrence of peritonitis in relation” value with abdominal viscera (mouse, in vivo, ip) is recorded as “never observed”.

On to `NC1CCCCC1N.[Cl][Pt][Cl]` (stereo not drawn) [PHD, CIS-DICHLORO(1,2-DIAMINOCYCLOHEXANE) PLATINUM (II)], for which the ILS was 5% in the data set on leukemia L 1210 (1 mg/kg, single i.p. on D1); 49% in the data set on leukemia L 1210 (2 mg/kg, single i.p. on D1); 65% with leukemia L 1210 (4 mg/kg, single i.p. on D1); 100% in the data set with sarcoma S 180 (1 mg/kg); 128% with sarcoma S 180 (2 mg/kg); 127% in the data set on sarcoma S 180 (4 mg/kg). Besides, the Survivals came out at 0% in the data set on leukemia L 1210 (L 1210, 1 mg/kg i.p. on D1, day 30); 0% in the data set on leukemia L 1210 (L 1210, 2 mg/kg i.p. on D1, day 30); 0% in the data set with leukemia L 1210 (setting [7]); 0% in the data set with sarcoma S 180 (setting [3]); 20% in the data set on sarcoma S 180 (setting [4]); 10% in the data set on sarcoma S 180 (setting [5]). In the data set on mouse, the “LD0 (maximum nonlethal dose)” value is given as 7 mg/kg. In addition, in the data set on L 1210 cells, the pIC50 is 6.89. The “occurrence of peritonitis in relation” value in the data set on abdominal viscera (mouse, in vivo, ip) was “seems to be correlated with the presence of 1,2-diaminocyclohexane”. In addition, the “renal and hepatic alterations” value in data set [2] (mouse, in vivo, ip) was “vascular alterations without any hyaline casts”.

Regarding `N.N.[Cl][Pt][Cl]` [PDD, cis-dichlorodiammine platinum (II)], the ILS in the data set with leukemia L 1210 (2 mg/kg, single i.p. on D1) came to 28%; with leukemia L 1210 (4 mg/kg, single i.p. on D1) it was 52%; with leukemia L 1210 (6 mg/kg, single i.p. on D1), 75%; in the data set with leukemia L 1210 (8 mg/kg, single i.p. on D1), 106%; with sarcoma S 180 (4 mg/kg), 41%; in the data set on sarcoma S 180 (8 mg/kg), 65%. For the same compound, the Survivals in the data set on leukemia L 1210 (setting [7]) is 0%; with leukemia L 1210 (L 1210, 6 mg/kg i.p. on D1, day 30) it was 0%; in the data set on leukemia L 1210 (L 1210, 8 mg/kg i.p. on D1, day 30), 0%; in the data set with sarcoma S 180 (setting [5]) it was 0%; with sarcoma S 180 (S 180, 8 mg/kg i.p. on D1, day 60), 0%. The “Surviving animals having received L 1210 leukaemia and S 180 sarcoma” value in the data set with leukemia L 1210 (summary for L 1210 and S 180) is “No”. Besides, the pIC50 in the data set on L 1210 cells is 5.63. Moreover, in the data set with DNA, the “Number of fixed platinum atoms per nucleotide on DNA” value is 1/30000. For the same compound, in the data set with DNA, the “amount that penetrated the cells which was complexed to DNA” value is 1%. For the same compound, in the data set on DNA, the “nucleotides per one fixed platinum atom” value is given as 3000 nucleotides. Moreover, in the data set on abdominal viscera (mouse, in vivo, ip), the “occurrence of peritonitis in relation” value is given as “never observed”.

As to `NC1CCCCC1N.O=C([O-])CC(=O)[O-].[Pt+2]` (stereo not drawn) [PHM, cis-malonato (1,2 diaminocyclohexane) platinum (II)], the increase in life span (ILS) was determined as 103% in the data set on leukemia L 1210 (50 mg/kg, single i.p. on D1); 25% with sarcoma S 180 (5 mg/kg); 36% in the data set on sarcoma S 180 (10 mg/kg); 44% in the data set on sarcoma S 180 (20 mg/kg); 60% in the data set with sarcoma S 180 (40 mg/kg); 96% with sarcoma S 180 (50 mg/kg). In addition, the Survivals is reported as 10% in the data set with leukemia L 1210 (L 1210, 50 mg/kg i.p. on D1, day 30); 0% in the data set with sarcoma S 180 (setting [6]); 0% in the data set on sarcoma S 180 (setting [8]); 0% in the data set with sarcoma S 180 (S 180, 20 mg/kg i.p. on D1, day 60); 0% with sarcoma S 180 (S 180, 40 mg/kg i.p. on D1, day 60); 0% in the data set with sarcoma S 180 (setting [9]). For the same compound, the pIC50 in the data set with L 1210 cells was 6.41. In addition, the “occurrence of peritonitis in relation” value in the data set on abdominal viscera (mouse, in vivo, ip) is reported as “seems to be correlated with the presence of 1,2-diaminocyclohexane”. Further, in the data set with abdominal viscera (mouse, in vivo, ip), the peritonitis entry was “most of the mice reaching 30 days of survival treatment with PHM and PHIC developed peritonitis”. In addition, in data set [2] (mouse, in vivo, ip), the “renal and hepatic alterations” value is “These alterations were observed”.

Consider “cis-citrato (1,2-diaminocyclohexane) platinum (II) [PHC]”, for which the ILS in the data set on leukemia L 1210 (120 mg/kg, single i.p. on D1, with 5 mice only) turned out to be 90%; in the data set with sarcoma S 180 (10 mg/kg) it was 20%; in the data set on sarcoma S 180 (25 mg/kg) it was 124%; in the data set on sarcoma S 180 (50 mg/kg) it was 121%. Also, the Survivals with leukemia L 1210 (L 1210, 120 mg/kg i.p. on D1, day 30) came to 0%; in the data set with sarcoma S 180 (setting [8]) it was 0%; with sarcoma S 180 (S 180, 25 mg/kg i.p. on D1, day 60) it was 20%; in the data set on sarcoma S 180 (setting [9]), 30%. Moreover, the “occurrence of peritonitis in relation” value in the data set on abdominal viscera (mouse, in vivo, ip) is given as “seems to be correlated with the presence of 1,2-diaminocyclohexane”. Also, the “renal and hepatic alterations” value in data set [2] (mouse, in vivo, ip) was “did not provoke any significant alterations”.

In the data set with leukemia L 1210 (500 mg/kg, single injection on D1), “cis-(t-aconitato) (1,2-diaminocyclohexane) platinum (II) [PHTA, reference compound]” came in with an ILS of 13%. In the data set with mouse, the “LD0 (maximum nonlethal dose)” value is above 500 mg/kg.

cis-citratodiammineplatinum (II) [PAC]: the ILS in the data set with leukemia L 1210 (100 mg/kg, single injection on D1) was 17%. The “LD0 (maximum nonlethal dose)” value in the data set on mouse is 125 mg/kg. In addition, the “occurrence of peritonitis in relation” value in the data set on abdominal viscera (mouse, in vivo, ip) was “never observed”. The “renal and hepatic alterations” value in data set [2] (mouse, in vivo, ip) is on record as “These alterations were observed”.
